Experimental data published in patent US20060276537A1, “Use of ladostigil for the treatment of multiple sclerosis” (priority 2005, published 2006).

Legend:
[1] = tested on: chronic progressive EAE induced by pMOG35-55 in C57BL/6 mice; experiment: MOG-induced chronic progressive EAE in C57BL/6 mice, clinical scoring; format: in vivo; conditions: GA blocking, dose 250 mg/kg, given with inoculum on day 0
Protocol: MOG (Myelin oligodendrocyte glycoprotein) is a member of the immunoglobulin superfamily expressed exclusively in CNS myelin. It is one of the most encephalitogenic proteins and is widely used to induce EAE in different rodent strains. In C57BL/6 mice, immunization with the MOG peptide pMOG35-55 in CFA induces chronic progressive EAE. Ladostigil was tested in this model in order to assess its ability to inhibit the disease.
EAE was induced by subcutaneous injection of encephalitogenic emulsion at a volume of 0.2 ml/mouse in the right flank. On the day of induction, pertussis toxin was injected intraperitoneally at a volume dose of 0.2 ml/mouse. The injection of the pertussis toxin was repeated after 48 hours. At the end of the experiment, 6-7 brains from control and the ladostigil groups were dissected and frozen at −70° C. for CHE (cholinesterase) determination and 6-7 brains were dissected and frozen for MAO (monoamine oxidase) determination. Before sacrifice, blood for ChE determination was taken on heparine, hemolysed 1/20 in 10 mM cold phosphate buffer pH=6.0 and stored at −70° C. until the assay.
90 female C57Bl/6 mice 8-10 weeks old obtained from Harlan animal breeding center were used in the study. Mice were allocated randomly into 6 groups:
Both compounds were administered by gavage once daily during the whole experiment (30 days) at a volume of 0.2 ml/mouse.
The mice were observed daily from the 10th day post-EAE induction and the EAE clinical signs were scored. The scores were recorded on observation cards according to the grades described in Table 5:
The number of sick animals (animals with a score of ≧1 at any point) in each group was summed.
The incidence of disease and the % activity were calculated as follows: [formula] [formula] [formula]
The maximal scores of all mice in each group were summed.
The mean maximal score and the % activity of the group were calculated as follows: [formula] [formula] [formula]
The individual scores (IMS) of each of the mice during the observation period were summed (score 6 will be counted forward).
The GMS of the group and its % activity were calculated as follows: [formula] [formula] [formula]
Their dates of onset were calculated as day of termination +1.

[2] = Body weight of the EAE mice (Table 7); format: in vivo
Source text: These differences were statistically significant (p<0.000, Manova). According to the subsequent Post Hoc comparison (LSD), all the groups were different from the control (Table 7). […] On day 14, four days after the onset of the disease, sick mice lost an average of 2 g of weight. The average mean weight of GA-blocked mice was reduced by only 0.4 g. On day 23 the control group reached the lowest weight, 14.6 g.

glatiramer acetate [GA, reference compound]
Incidence [1]: 14/15
Mortality [1]: 0/15
% Inhibition ([1]; vs control group mean score): 54.6%
Reduction of average mean weight ([2]; GA-blocked mice, day 14): 0.4 g
Weight of EAE mice ([2]; day 2 after induction, GA blocking, dose 250 mg/kg): 18.6 ± 0.8 g
